Structures are written as SMILES. Converted amounts (≈) assume the structure as drawn.

Results on 16 compounds are retold here after ChEMBL document CHEMBL1158612, “Anti HIV-1 agents 5: synthesis and anti-HIV-1 activity of some N-arylsulfonyl-3-acetylindoles in vitro” (Bioorg Med Chem Lett, 2010).

Data set [1] can be described thus: Therapeutic index, ratio of CC50 for human C8166 to EC50 for HIV1 3B.
The test system of data set [2] is Human immunodeficiency virus 1. The data set can be described thus: Antiviral activity against HIV1 3B infected in C8166 cells assessed as inhibition of syncytia formation. In kind it is functional, organism-based. The settings on record: Human immunodeficiency virus 1, 3B.
Data set [3] can be described thus: Cytotoxicity against human C8166 cells after 3 days by MTT assay. The class given is cell-based. On the technique in general: Tetrazolium assays rely on reduction of a dye to a coloured formazan, in cell work by metabolically active cells.

Regarding `CC(=O)c1cn(S(=O)(=O)c2ccc(C)cc2)c2ccc(C#N)cc12`, the selectivity ratio in data set [1] (C8166 cells) worked out at 1.91. The EC50 in data set [2] came out at 76.9 µg/mL (≈ 227 µM). The compound further yielded a CC50 at 72 h in data set [3] of 147 µg/mL (≈ 435 µM).
Take `CC(=O)c1cn(S(=O)(=O)c2ccc(Br)cc2)c2ccc([N+](=O)[O-])cc12`: the selectivity ratio in data set [1] (C8166 cells) stood at 1.29. Also, in data set [2], the EC50 amounted to 54.5 µg/mL (≈ 129 µM). This compound also showed a CC50 at 72 h in data set [3] of 70.4 µg/mL (≈ 166 µM).
In the case of `CC(=O)c1cn(S(=O)(=O)c2ccc(Br)cc2)c2ccc(C#N)cc12`, in data set [2], the EC50 was more than 200 µg/mL. Moreover, in data set [3], the CC50 at 72 h was more than 200 µg/mL.
Turning to `CC(=O)c1cn(S(=O)(=O)c2cccc([N+](=O)[O-])c2)c2ccccc12`, the selectivity ratio in data set [1] (C8166 cells) worked out at 77.4. Moreover, in data set [2], the EC50 was 2.12 µg/mL (≈ 6.16 µM). The half-maximal cytotoxic concentration (CC50) at 72 h in data set [3] stood at 164 µg/mL (≈ 477 µM).
Turning to `CC(=O)c1cn(S(=O)(=O)c2ccccc2)c2ccc([N+](=O)[O-])cc12`, in data set [1] (C8166 cells), the selectivity ratio was more than 4.36. Further, in data set [2], the EC50 was determined as 45.8 µg/mL (≈ 133 µM). Besides, the CC50 at 72 h in data set [3] is more than 200 µg/mL.
Turning to `CC(=O)c1cn(S(=O)(=O)c2ccccc2)c2ccc(C#N)cc12`, in data set [1] (C8166 cells), the selectivity ratio came out at 1.21. Besides, in data set [2], the EC50 worked out at 57.5 µg/mL (≈ 177 µM). Further, the CC50 at 72 h in data set [3] amounted to 66.2 µg/mL (≈ 204 µM).
As for `CC(=O)c1cn(S(=O)(=O)c2ccc(C)cc2)c2ccc([N+](=O)[O-])cc12`, the EC50 in data set [2] is more than 200 µg/mL. In data set [3], the CC50 at 72 h was more than 200 µg/mL.
With `N#Cc1ccc2c(ccn2S(=O)(=O)c2ccccc2)c1`, the selectivity ratio in data set [1] (C8166 cells) is more than 61.9. Moreover, in data set [2], the EC50 was found to be 3.23 µg/mL (≈ 11.4 µM). The compound further showed a CC50 at 72 h in data set [3] of more than 200 µg/mL.
As to `Cc1cn([C@H]2C[C@H](N=[N+]=[N-])[C@@H](CO)O2)c(=O)[nH]c1=O` [ZIDOVUDINE], the selectivity ratio in data set [1] was 353000. Further, the EC50 in data set [2] was determined as 0.00324 µg/mL (≈ 0.0121 µM). The CC50 at 72 h in data set [3] amounted to 1140 µg/mL (≈ 4260 µM).
`CC(=O)c1cn(S(=O)(=O)c2ccc(Cl)c([N+](=O)[O-])c2)c2ccccc12`: the selectivity ratio in data set [1] (C8166 cells) is 0.94. Moreover, the concentration giving a half-maximal response (EC50) in data set [2] was 3.43 µg/mL (≈ 9.06 µM). Further, in data set [3], the CC50 at 72 h was 3.21 µg/mL (≈ 8.47 µM).
For `CC(=O)c1cn(S(=O)(=O)c2ccc(Cl)cc2)c2ccc(C#N)cc12`, the selectivity ratio in data set [1] (C8166 cells) worked out at 1.19. Besides, the concentration for a half-maximal effect (EC50) in data set [2] is 54.4 µg/mL (≈ 152 µM). This compound also had a CC50 at 72 h in data set [3] of 65.2 µg/mL (≈ 182 µM).
The corresponding values for `O=S(=O)(c1ccc(Br)cc1)n1ccc2ccccc21` are more than 9.79, 20.4 µg/mL (≈ 60.7 µM) and more than 200 µg/mL.
As for `CC(=O)c1cn(S(=O)(=O)c2cccc([N+](=O)[O-])c2)c2cc(C)ccc12`, in data set [1] (C8166 cells), the selectivity ratio was 122. Further, the EC50 in data set [2] stood at 1.02 µg/mL (≈ 2.85 µM). Besides, in data set [3], the CC50 at 72 h worked out at 125 µg/mL (≈ 349 µM).
In the case of `O=S(=O)(c1ccccc1)n1ccc2ccccc21`, in data set [1] (C8166 cells), the selectivity ratio turned out to be 50.7. In addition, the EC50 in data set [2] is 0.93 µg/mL (≈ 3.61 µM). Also, the CC50 at 72 h in data set [3] turned out to be 47.1 µg/mL (≈ 183 µM).
Consider `CCc1ccc(S(=O)(=O)n2cc(C(C)=O)c3cc(C#N)ccc32)cc1`, for which, in data set [1], the selectivity ratio turned out to be 3.7. In data set [2], the EC50 came out at 30.5 µg/mL (≈ 86.5 µM). The midpoint of cytotoxicity in data set [3], the CC50 at 72 h, lay at 113 µg/mL (≈ 320 µM).
As to `O=[N+]([O-])c1cccc(S(=O)(=O)n2ccc3ccccc32)c1`, in data set [1] (C8166 cells), the selectivity ratio is more than 270. For the same compound, the 50% effective concentration (EC50) in data set [2] is 0.74 µg/mL (≈ 2.45 µM). The same compound returned a CC50 at 72 h in data set [3] of more than 200 µg/mL.

The EC50 is the concentration that produces a half-maximal response. Usually CC50 stands for the concentration that lowers cell viability or growth by half. Read a high CC50 as better tolerance by the cells.
